Converted amounts (≈) assume the structure as drawn.
Legend:
Assay type in all cases: functional
Pseudomonas aeruginosa [1] = test: Antibacterial activity against Pseudomonas aeruginosa isolate 361 after 24 hrs by CLSI microdilution method
Pseudomonas aeruginosa [2] = test: Antibacterial activity against Pseudomonas aeruginosa isolate 330 after 24 hrs by CLSI microdilution method
Acinetobacter baumannii [3] = test: Antibacterial activity against Acinetobacter baumannii isolate 906 after 24 hrs by CLSI microdilution method
Pseudomonas aeruginosa [4] = test: Antibacterial activity against Pseudomonas aeruginosa isolate 332 after 24 hrs by CLSI microdilution method
Acinetobacter baumannii [5] = test: Antibacterial activity against Acinetobacter baumannii isolate 901 after 24 hrs by CLSI microdilution method
Acinetobacter baumannii [6] = test: Antibacterial activity against Acinetobacter baumannii isolate 929 after 24 hrs by CLSI microdilution method
Pseudomonas aeruginosa [7] = test: Antibacterial activity against Pseudomonas aeruginosa isolate 374 after 24 hrs by CLSI microdilution method
Acinetobacter baumannii [8] = test: Antibacterial activity against Acinetobacter baumannii isolate 914 after 24 hrs by CLSI microdilution method
Pseudomonas aeruginosa [9] = test: Antibacterial activity against Pseudomonas aeruginosa isolate 346 after 24 hrs by CLSI microdilution method
Pseudomonas aeruginosa [10] = test: Antibacterial activity against Pseudomonas aeruginosa isolate 365 after 24 hrs by CLSI microdilution method
Acinetobacter baumannii [11] = test: Antibacterial activity against Acinetobacter baumannii isolate 904 after 24 hrs by CLSI microdilution method
Acinetobacter baumannii [12] = test: Antibacterial activity against Acinetobacter baumannii isolate 926 after 24 hrs by CLSI microdilution method
Pseudomonas aeruginosa [13] = test: Antibacterial activity against Pseudomonas aeruginosa isolate 355 after 24 hrs by CLSI microdilution method
Pseudomonas aeruginosa [14] = test: Antibacterial activity against Pseudomonas aeruginosa isolate 353 after 24 hrs by CLSI microdilution method
Pseudomonas aeruginosa [15] = test: Antibacterial activity against Pseudomonas aeruginosa isolate 339 after 24 hrs by CLSI microdilution method
Pseudomonas aeruginosa [16] = test: Antibacterial activity against Pseudomonas aeruginosa isolate 331 after 24 hrs by CLSI microdilution method
Acinetobacter baumannii [17] = test: Antibacterial activity against Acinetobacter baumannii isolate 921 after 24 hrs by CLSI microdilution method
Acinetobacter baumannii [18] = test: Antibacterial activity against Acinetobacter baumannii isolate 931 after 24 hrs by CLSI microdilution method
Pseudomonas aeruginosa [19] = test: Antibacterial activity against Pseudomonas aeruginosa isolate 375 after 24 hrs by CLSI microdilution method
Pseudomonas aeruginosa [20] = test: Antibacterial activity against Pseudomonas aeruginosa isolate 370 after 24 hrs by CLSI microdilution method
Pseudomonas aeruginosa [21] = test: Antibacterial activity against Pseudomonas aeruginosa isolate 364 after 24 hrs by CLSI microdilution method
Pseudomonas aeruginosa [22] = test: Antibacterial activity against Pseudomonas aeruginosa isolate 334 after 24 hrs by CLSI microdilution method
Acinetobacter baumannii [23] = test: Antibacterial activity against Acinetobacter baumannii isolate 920 after 24 hrs by CLSI microdilution method
Pseudomonas aeruginosa [24] = test: Antibacterial activity against Pseudomonas aeruginosa isolate 341 after 24 hrs by CLSI microdilution method
Acinetobacter baumannii [25] = test: Antibacterial activity against Acinetobacter baumannii isolate 907 after 24 hrs by CLSI microdilution method
Pseudomonas aeruginosa [26] = test: Antibacterial activity against Pseudomonas aeruginosa isolate 337 after 24 hrs by CLSI microdilution method
Acinetobacter baumannii [27] = test: Antibacterial activity against Acinetobacter baumannii isolate 882 after 24 hrs by CLSI microdilution method
Pseudomonas aeruginosa [28] = test: Antibacterial activity against Pseudomonas aeruginosa isolate 329 after 24 hrs by CLSI microdilution method
Acinetobacter baumannii [29] = test: Antibacterial activity against Acinetobacter baumannii isolate 905 after 24 hrs by CLSI microdilution method
Pseudomonas aeruginosa [30] = test: Antibacterial activity against Pseudomonas aeruginosa isolate 371 after 24 hrs by CLSI microdilution method
Acinetobacter baumannii [31] = test: Antibacterial activity against Acinetobacter baumannii isolate 927 after 24 hrs by CLSI microdilution method
Acinetobacter baumannii [32] = test: Antibacterial activity against Acinetobacter baumannii isolate 909 after 24 hrs by CLSI microdilution method
Acinetobacter baumannii [33] = test: Antibacterial activity against Acinetobacter baumannii isolate 892 after 24 hrs by CLSI microdilution method
Pseudomonas aeruginosa [34] = test: Antibacterial activity against Pseudomonas aeruginosa isolate 360 after 24 hrs by CLSI microdilution method
Acinetobacter baumannii [35] = test: Antibacterial activity against Acinetobacter baumannii isolate 902 after 24 hrs by CLSI microdilution method
Pseudomonas aeruginosa [36] = test: Antibacterial activity against Pseudomonas aeruginosa isolate 359 after 24 hrs by CLSI microdilution method
Pseudomonas aeruginosa [37] = test: Antibacterial activity against Pseudomonas aeruginosa isolate 362 after 24 hrs by CLSI microdilution method
Acinetobacter baumannii [38] = test: Antibacterial activity against Acinetobacter baumannii isolate 893 after 24 hrs by CLSI microdilution method
Acinetobacter baumannii [39] = test: Antibacterial activity against Acinetobacter baumannii isolate 917 after 24 hrs by CLSI microdilution method
Acinetobacter baumannii [40] = test: Antibacterial activity against Acinetobacter baumannii isolate 887 after 24 hrs by CLSI microdilution method
Pseudomonas aeruginosa [41] = test: Antibacterial activity against Pseudomonas aeruginosa isolate 366 after 24 hrs by CLSI microdilution method
Acinetobacter baumannii [42] = test: Antibacterial activity against Acinetobacter baumannii isolate 884 after 24 hrs by CLSI microdilution method
Acinetobacter baumannii [43] = test: Antibacterial activity against Acinetobacter baumannii isolate 915 after 24 hrs by CLSI microdilution method
Acinetobacter baumannii [44] = test: Antibacterial activity against Acinetobacter baumannii isolate 891 after 24 hrs by CLSI microdilution method; conditions: isolate 891, 24 h

Molecule: COLISTIN
- MIC (Pseudomonas aeruginosa [1]): 1 µg/mL
- MIC (Pseudomonas aeruginosa [2]): 1 µg/mL
- MIC (Acinetobacter baumannii [3]): 4 µg/mL
- MIC (Pseudomonas aeruginosa [4]): 0.5 µg/mL
- MIC (Acinetobacter baumannii [5]): 8 µg/mL
- MIC (Acinetobacter baumannii [6]): 32 µg/mL
- MIC (Pseudomonas aeruginosa [7]): 1 µg/mL
- MIC (Acinetobacter baumannii [8]): 2 µg/mL
- MIC (Pseudomonas aeruginosa [9]): 2 µg/mL
- MIC (Pseudomonas aeruginosa [10]): 2 µg/mL
- MIC (Acinetobacter baumannii [11]): 16 µg/mL
- MIC (Acinetobacter baumannii [12]): 2 µg/mL
- MIC (Pseudomonas aeruginosa [13]): 1 µg/mL
- MIC (Pseudomonas aeruginosa [14]): 0.25 µg/mL
- MIC (Pseudomonas aeruginosa [15]): 1 µg/mL
- MIC (Pseudomonas aeruginosa [16]): 0.5 µg/mL
- MIC (Acinetobacter baumannii [17]): 1 µg/mL
- MIC (Acinetobacter baumannii [18]): 4 µg/mL
- MIC (Pseudomonas aeruginosa [19]): 0.5 µg/mL
- MIC (Pseudomonas aeruginosa [20]): 2 µg/mL
- MIC (Pseudomonas aeruginosa [21]): 1 µg/mL
- MIC (Pseudomonas aeruginosa [22]): 1 µg/mL
- MIC (Acinetobacter baumannii [23]): 8 µg/mL
- MIC (Pseudomonas aeruginosa [24]): 0.5 µg/mL
- MIC (Acinetobacter baumannii [25]): 1 µg/mL
- MIC (Pseudomonas aeruginosa [26]): 1 µg/mL
- MIC (Acinetobacter baumannii [27]): 1 µg/mL
- MIC (Pseudomonas aeruginosa [28]): 1 µg/mL
- MIC (Acinetobacter baumannii [29]): 4 µg/mL
- MIC (Pseudomonas aeruginosa [30]): 1 µg/mL
- MIC (Acinetobacter baumannii [31]): 2 µg/mL
- MIC (Acinetobacter baumannii [32]): 1 µg/mL
- MIC (Acinetobacter baumannii [33]): 16 µg/mL
- MIC (Pseudomonas aeruginosa [34]): 1 µg/mL
- MIC (Acinetobacter baumannii [35]): 2 µg/mL
- MIC (Pseudomonas aeruginosa [36]): 0.5 µg/mL
- MIC (Pseudomonas aeruginosa [37]): 1 µg/mL
- MIC (Acinetobacter baumannii [38]): 0.5 µg/mL
- MIC (Acinetobacter baumannii [39]): 4 µg/mL
- MIC (Acinetobacter baumannii [40]): 16 µg/mL
- MIC (Pseudomonas aeruginosa [41]): 0.5 µg/mL
- MIC (Acinetobacter baumannii [42]): 2 µg/mL
- MIC (Acinetobacter baumannii [43]): 1 µg/mL

Molecule: C[C@@H](O)[C@H]1C(=O)N2C(C(=O)O)=C(S[C@@H]3CN[C@H](C(=O)N(C)C)C3)[C@H](C)[C@H]12 [MEROPENEM]
- MIC (Pseudomonas aeruginosa [1]; isolate 361, 24 h): 0.25 µg/mL (≈ 0.652 µM)
- MIC (Pseudomonas aeruginosa [2]; isolate 330, 24 h): 0.5 µg/mL (≈ 1.3 µM)
- MIC (Acinetobacter baumannii [3]; isolate 906, 24 h): 1 µg/mL (≈ 2.61 µM)
- MIC (Pseudomonas aeruginosa [4]; isolate 332, 24 h): 4 µg/mL (≈ 10.4 µM)
- MIC (Acinetobacter baumannii [5]; isolate 901, 24 h): 8 µg/mL (≈ 20.9 µM)
- MIC (Acinetobacter baumannii [6]; isolate 929, 24 h): 0.5 µg/mL (≈ 1.3 µM)
- MIC (Pseudomonas aeruginosa [7]; isolate 374, 24 h): 0.5 µg/mL (≈ 1.3 µM)
- MIC (Acinetobacter baumannii [8]; isolate 914, 24 h): 0.5 µg/mL (≈ 1.3 µM)
- MIC (Pseudomonas aeruginosa [9]; isolate 346, 24 h): 1 µg/mL (≈ 2.61 µM)
- MIC (Pseudomonas aeruginosa [10]; isolate 365, 24 h): 1 µg/mL (≈ 2.61 µM)
- MIC (Acinetobacter baumannii [11]; isolate 904, 24 h): 2 µg/mL (≈ 5.22 µM)
- MIC (Acinetobacter baumannii [44]): 4 µg/mL (≈ 10.4 µM)
- MIC (Acinetobacter baumannii [12]; isolate 926, 24 h): 32 µg/mL (≈ 83.4 µM)
- MIC (Pseudomonas aeruginosa [13]; isolate 355, 24 h): 0.25 µg/mL (≈ 0.652 µM)
- MIC (Pseudomonas aeruginosa [14]; isolate 353, 24 h): 2 µg/mL (≈ 5.22 µM)
- MIC (Pseudomonas aeruginosa [15]; isolate 339, 24 h): 0.5 µg/mL (≈ 1.3 µM)
- MIC (Pseudomonas aeruginosa [16]; isolate 331, 24 h): 0.12 µg/mL (≈ 0.313 µM)
- MIC (Acinetobacter baumannii [17]; isolate 921, 24 h): 1 µg/mL (≈ 2.61 µM)
- MIC (Acinetobacter baumannii [18]; isolate 931, 24 h): 2 µg/mL (≈ 5.22 µM)
- MIC (Pseudomonas aeruginosa [19]; isolate 375, 24 h): 0.5 µg/mL (≈ 1.3 µM)
- MIC (Pseudomonas aeruginosa [20]; isolate 370, 24 h): 1 µg/mL (≈ 2.61 µM)
- MIC (Pseudomonas aeruginosa [21]; isolate 364, 24 h): 0.12 µg/mL (≈ 0.313 µM)
- MIC (Pseudomonas aeruginosa [22]; isolate 334, 24 h): 1 µg/mL (≈ 2.61 µM)
- MIC (Acinetobacter baumannii [23]; isolate 920, 24 h): 1 µg/mL (≈ 2.61 µM)
- MIC (Pseudomonas aeruginosa [24]; isolate 341, 24 h): 0.5 µg/mL (≈ 1.3 µM)
- MIC (Acinetobacter baumannii [25]; isolate 907, 24 h): 0.5 µg/mL (≈ 1.3 µM)
- MIC (Pseudomonas aeruginosa [26]; isolate 337, 24 h): 1 µg/mL (≈ 2.61 µM)
- MIC (Acinetobacter baumannii [27]; isolate 882, 24 h): 1 µg/mL (≈ 2.61 µM)
- MIC (Pseudomonas aeruginosa [28]; isolate 329, 24 h): 0.5 µg/mL (≈ 1.3 µM)
- MIC (Acinetobacter baumannii [29]; isolate 905, 24 h): 0.5 µg/mL (≈ 1.3 µM)
- MIC (Pseudomonas aeruginosa [30]; isolate 371, 24 h): 16 µg/mL (≈ 41.7 µM)
- MIC (Acinetobacter baumannii [31]; isolate 927, 24 h): 0.12 µg/mL (≈ 0.313 µM)
- MIC (Acinetobacter baumannii [32]; isolate 909, 24 h): 1 µg/mL (≈ 2.61 µM)
- MIC (Acinetobacter baumannii [33]; isolate 892, 24 h): 32 µg/mL (≈ 83.4 µM)
- MIC (Pseudomonas aeruginosa [34]; isolate 360, 24 h): 0.25 µg/mL (≈ 0.652 µM)
- MIC (Acinetobacter baumannii [35]; isolate 902, 24 h): 1 µg/mL (≈ 2.61 µM)
- MIC (Pseudomonas aeruginosa [36]; isolate 359, 24 h): 0.12 µg/mL (≈ 0.313 µM)
- MIC (Pseudomonas aeruginosa [37]; isolate 362, 24 h): 0.5 µg/mL (≈ 1.3 µM)
- MIC (Acinetobacter baumannii [38]; isolate 893, 24 h): 2 µg/mL (≈ 5.22 µM)
- MIC (Acinetobacter baumannii [39]; isolate 917, 24 h): 0.5 µg/mL (≈ 1.3 µM)
- MIC (Acinetobacter baumannii [40]; isolate 887, 24 h): 1 µg/mL (≈ 2.61 µM)
- MIC (Pseudomonas aeruginosa [41]; isolate 366, 24 h): 0.5 µg/mL (≈ 1.3 µM)
- MIC (Acinetobacter baumannii [42]; isolate 884, 24 h): 8 µg/mL (≈ 20.9 µM)
- MIC (Acinetobacter baumannii [43]; isolate 915, 24 h): 0.5 µg/mL (≈ 1.3 µM)

Reference: ChEMBL document CHEMBL1151464 (2008)
